Measured values from ChEMBL document CHEMBL4804286, “3-amino-4-(4-(4 (dimethylcarbamoyl) phenyl)-1,4-diazepan-1-yl) thieno [2,3-b] pyridine-2-carboxamide for use in cancer therapy and formulations comprising the same” (2020).
Several values for one entry are separate records, joined by “and”; a condition that tells them apart may be missing. Equal entries are not always repeated. Activity calls are given as the source filed them. The calls are words filed in the database; no cut-off is given here.

Experiments:
[1] = molecular target: RAC-alpha serine/threonine-protein kinase (Homo sapiens) (UniProt P31749); assay: Inhibition of human AKT1 assessed as percent of control at 2000 nM by KINOMEscan assay relative to control; set-up: scale not given: the % may be the effect or the level left
[2] = molecular target: Serine/threonine-protein kinase WNK1 (Homo sapiens) (UniProt Q9H4A3); assay: Inhibition of human WNK1 assessed as percent of control at 2000 nM by KINOMEscan assay relative to control; set-up: scale not given: the % may be the effect or the level left
[3] = molecular target: Cytoplasmic tyrosine-protein kinase BMX (Homo sapiens) (UniProt P51813); assay: Inhibition of human BMX assessed as percent of control at 2000 nM by KINOMEscan assay relative to control; set-up: scale not given: the % may be the effect or the level left
Myc-CaP [4] = assay: Antiproliferative activity against murine castration-resistant Myc-CaP cells at 1 uM assessed as growth inhibition in presence of 5 uM enzalutamide relative to control; type: functional; conditions: Mus musculus
[5] = system: Tyrosine-protein kinase ABL1 (Homo sapiens), P00519 [M351T]; assay: Inhibition of phosphorylated human ABL1 M351T mutant assessed as percent of control at 2000 nM by KINOMEscan assay relative to control; set-up: scale not given: the % may be the effect or the level left
[6] = molecular target: Non-receptor tyrosine-protein kinase TYK2 (Homo sapiens) (UniProt P29597); assay: Inhibition of human TYK2 JH1 catalytic domain assessed as percent of control at 2000 nM by KINOMEscan assay relative to control; set-up: scale not given: the % may be the effect or the level left
Non-receptor tyrosine-protein kinase TYK2 (Homo sapiens), sequence (P29597 whole entry, the tested form may be a part): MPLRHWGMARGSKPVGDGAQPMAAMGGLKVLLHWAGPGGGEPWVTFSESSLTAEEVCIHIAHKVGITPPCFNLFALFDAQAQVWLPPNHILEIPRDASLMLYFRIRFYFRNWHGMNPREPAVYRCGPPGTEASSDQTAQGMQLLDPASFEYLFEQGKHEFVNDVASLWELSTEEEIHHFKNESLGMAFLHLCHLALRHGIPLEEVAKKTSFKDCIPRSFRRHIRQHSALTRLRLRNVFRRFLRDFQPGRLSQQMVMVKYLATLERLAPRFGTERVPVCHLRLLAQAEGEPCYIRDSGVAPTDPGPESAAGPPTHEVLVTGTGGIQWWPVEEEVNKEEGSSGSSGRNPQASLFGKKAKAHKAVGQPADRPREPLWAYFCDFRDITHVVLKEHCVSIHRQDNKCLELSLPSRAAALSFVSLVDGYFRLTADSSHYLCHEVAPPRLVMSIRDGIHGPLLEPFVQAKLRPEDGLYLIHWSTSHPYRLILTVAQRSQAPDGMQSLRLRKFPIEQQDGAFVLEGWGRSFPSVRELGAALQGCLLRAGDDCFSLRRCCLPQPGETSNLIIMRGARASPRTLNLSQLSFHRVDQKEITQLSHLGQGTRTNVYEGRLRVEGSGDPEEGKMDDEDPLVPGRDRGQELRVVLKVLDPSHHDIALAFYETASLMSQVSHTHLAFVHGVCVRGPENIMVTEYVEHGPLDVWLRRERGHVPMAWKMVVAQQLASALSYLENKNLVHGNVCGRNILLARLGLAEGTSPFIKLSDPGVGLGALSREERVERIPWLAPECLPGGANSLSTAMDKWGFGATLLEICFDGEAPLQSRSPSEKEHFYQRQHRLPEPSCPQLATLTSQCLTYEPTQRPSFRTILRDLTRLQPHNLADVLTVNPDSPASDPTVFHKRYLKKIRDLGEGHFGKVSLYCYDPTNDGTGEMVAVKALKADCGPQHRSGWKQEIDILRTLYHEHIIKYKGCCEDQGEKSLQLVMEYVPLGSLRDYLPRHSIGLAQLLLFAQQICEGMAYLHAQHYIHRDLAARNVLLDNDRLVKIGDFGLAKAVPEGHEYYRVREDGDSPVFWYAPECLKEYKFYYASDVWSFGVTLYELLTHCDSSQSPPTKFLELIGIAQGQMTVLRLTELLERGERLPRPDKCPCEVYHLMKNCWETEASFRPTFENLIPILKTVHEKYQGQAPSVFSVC

[7] = molecular target: Serine/threonine-protein kinase PAK 3 (Homo sapiens) (UniProt O75914); assay: Inhibition of human PAK3 assessed as percent of control at 2000 nM by KINOMEscan assay relative to control; set-up: scale not given: the % may be the effect or the level left
[8] = molecular target: Dual specificity mitogen-activated protein kinase kinase 3 (Homo sapiens) (UniProt P46734); assay: Inhibition of human MEK3 assessed as percent of control at 2000 nM by KINOMEscan assay relative to control; set-up: scale not given: the % may be the effect or the level left
[9] = molecular target: Mitogen-activated protein kinase 15 (Homo sapiens) (UniProt Q8TD08); assay: Inhibition of human ERK8 assessed as percent of control at 2000 nM by KINOMEscan assay relative to control; set-up: scale not given: the % may be the effect or the level left
[10] = molecular target: Cyclin-dependent kinase-like 2 (Homo sapiens) (UniProt Q92772); assay: Inhibition of human CDKL2 assessed as percent of control at 2000 nM by KINOMEscan assay relative to control; set-up: scale not given: the % may be the effect or the level left
[11] = molecular target: Tyrosine-protein kinase Blk (Homo sapiens) (UniProt P51451); assay: Inhibition of human BLK assessed as percent of control at 2000 nM by KINOMEscan assay relative to control; set-up: scale not given: the % may be the effect or the level left
Tyrosine-protein kinase Blk (Homo sapiens), sequence (P51451 2-505 limits assumed): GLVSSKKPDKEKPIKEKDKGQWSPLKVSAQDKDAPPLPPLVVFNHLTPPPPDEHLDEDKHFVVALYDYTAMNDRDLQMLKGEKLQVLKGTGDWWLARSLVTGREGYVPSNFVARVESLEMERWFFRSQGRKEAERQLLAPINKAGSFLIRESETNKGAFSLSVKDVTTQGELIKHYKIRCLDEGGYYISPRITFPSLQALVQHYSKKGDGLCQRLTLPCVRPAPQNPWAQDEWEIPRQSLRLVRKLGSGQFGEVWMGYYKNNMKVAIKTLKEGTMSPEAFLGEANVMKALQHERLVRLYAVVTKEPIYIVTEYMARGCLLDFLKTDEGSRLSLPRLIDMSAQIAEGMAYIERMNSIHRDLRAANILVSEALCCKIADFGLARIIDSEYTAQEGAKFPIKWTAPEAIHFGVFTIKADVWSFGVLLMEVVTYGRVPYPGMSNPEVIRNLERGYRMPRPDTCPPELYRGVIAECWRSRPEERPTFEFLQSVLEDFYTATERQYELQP

[12] = molecular target: Tyrosine-protein kinase Fer (Homo sapiens) (UniProt P16591); assay: Inhibition of human FER assessed as percent of control at 2000 nM by KINOMEscan assay relative to control; set-up: scale not given: the % may be the effect or the level left
Tyrosine-protein kinase Fer (Homo sapiens), sequence (P16591 whole entry, looked up): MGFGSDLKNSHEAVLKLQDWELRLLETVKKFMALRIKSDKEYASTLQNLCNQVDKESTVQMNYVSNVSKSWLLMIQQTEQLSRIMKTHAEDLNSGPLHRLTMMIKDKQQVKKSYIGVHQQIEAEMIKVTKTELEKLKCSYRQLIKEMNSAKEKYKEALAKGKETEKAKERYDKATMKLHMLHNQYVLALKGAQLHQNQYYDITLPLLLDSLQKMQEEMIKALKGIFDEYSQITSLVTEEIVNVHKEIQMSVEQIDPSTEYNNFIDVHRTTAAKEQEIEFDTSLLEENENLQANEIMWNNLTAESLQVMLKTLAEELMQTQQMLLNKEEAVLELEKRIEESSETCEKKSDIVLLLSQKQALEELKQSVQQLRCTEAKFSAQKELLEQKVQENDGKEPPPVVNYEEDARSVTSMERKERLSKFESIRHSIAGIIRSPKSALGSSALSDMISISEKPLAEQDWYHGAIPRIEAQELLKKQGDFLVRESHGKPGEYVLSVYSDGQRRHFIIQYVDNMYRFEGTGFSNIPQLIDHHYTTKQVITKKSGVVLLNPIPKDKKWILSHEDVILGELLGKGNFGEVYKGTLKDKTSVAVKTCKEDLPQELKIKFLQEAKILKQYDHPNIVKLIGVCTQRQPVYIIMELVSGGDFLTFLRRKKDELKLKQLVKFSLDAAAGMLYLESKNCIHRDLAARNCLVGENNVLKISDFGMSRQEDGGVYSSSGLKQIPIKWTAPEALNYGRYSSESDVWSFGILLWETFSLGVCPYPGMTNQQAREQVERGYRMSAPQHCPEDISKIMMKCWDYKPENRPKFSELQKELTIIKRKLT

[13] = molecular target: High affinity nerve growth factor receptor (Homo sapiens) (UniProt P04629); assay: Inhibition of human TRKA assessed as percent of control at 2000 nM by KINOMEscan assay relative to control; set-up: scale not given: the % may be the effect or the level left
[14] = molecular target: Ephrin type-A receptor 3 (Homo sapiens) (UniProt P29320); assay: Inhibition of human EPHA3 assessed as percent of control at 2000 nM by KINOMEscan assay relative to control; set-up: scale not given: the % may be the effect or the level left
[15] = molecular target: Aurora kinase B (Homo sapiens) (UniProt Q96GD4); assay: Inhibition of human AURKB assessed as percent of control at 2000 nM by KINOMEscan assay relative to control; set-up: scale not given: the % may be the effect or the level left
[16] = molecular target: Dual specificity mitogen-activated protein kinase kinase 6 (Homo sapiens) (UniProt P52564); assay: Inhibition of human MEK6 assessed as percent of control at 2000 nM by KINOMEscan assay relative to control; set-up: scale not given: the % may be the effect or the level left
[17] = molecular target: MAP kinase-activated protein kinase 2 (Homo sapiens) (UniProt P49137); assay: Inhibition of human MAPKAPK2 assessed as percent of control at 2000 nM by KINOMEscan assay relative to control; set-up: scale not given: the % may be the effect or the level left
MAP kinase-activated protein kinase 2 (Homo sapiens), sequence (P49137 whole entry, looked up): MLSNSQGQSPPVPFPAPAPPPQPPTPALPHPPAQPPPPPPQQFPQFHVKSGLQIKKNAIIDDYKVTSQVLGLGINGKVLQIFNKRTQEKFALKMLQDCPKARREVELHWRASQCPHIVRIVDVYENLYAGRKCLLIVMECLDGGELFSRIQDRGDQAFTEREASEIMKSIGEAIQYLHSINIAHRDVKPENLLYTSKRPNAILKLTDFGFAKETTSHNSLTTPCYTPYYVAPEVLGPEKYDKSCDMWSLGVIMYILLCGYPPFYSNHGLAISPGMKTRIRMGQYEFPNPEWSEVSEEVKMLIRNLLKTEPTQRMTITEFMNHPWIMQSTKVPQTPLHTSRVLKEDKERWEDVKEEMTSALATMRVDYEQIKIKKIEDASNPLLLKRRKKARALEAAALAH

[18] = molecular target: Homeodomain-interacting protein kinase 3 (Homo sapiens) (UniProt Q9H422); assay: Inhibition of human HIPK3 assessed as percent of control at 2000 nM by KINOMEscan assay relative to control; set-up: scale not given: the % may be the effect or the level left
[19] = molecular target: RAF proto-oncogene serine/threonine-protein kinase (Homo sapiens) (UniProt P04049); assay: Inhibition of human RAF1 assessed as percent of control at 2000 nM by KINOMEscan assay relative to control; set-up: scale not given: the % may be the effect or the level left
[20] = molecular target: Serine/threonine-protein kinase LATS1 (Homo sapiens) (UniProt O95835); assay: Inhibition of human LATS1 assessed as percent of control at 2000 nM by KINOMEscan assay relative to control; set-up: scale not given: the % may be the effect or the level left
[21] = molecular target: Ribosomal protein S6 kinase alpha-6 (Homo sapiens) (UniProt Q9UK32); assay: Inhibition of human N-terminal RSK4 kinase domain 1 assessed as percent of control at 2000 nM by KINOMEscan assay relative to control; set-up: scale not given: the % may be the effect or the level left
[22] = molecular target: Mitogen-activated protein kinase 14 (Homo sapiens) (UniProt Q16539); assay: Inhibition of human p38-alpha assessed as percent of control at 2000 nM by KINOMEscan assay relative to control; set-up: scale not given: the % may be the effect or the level left
Mitogen-activated protein kinase 14 (Homo sapiens), sequence (Q16539 whole entry): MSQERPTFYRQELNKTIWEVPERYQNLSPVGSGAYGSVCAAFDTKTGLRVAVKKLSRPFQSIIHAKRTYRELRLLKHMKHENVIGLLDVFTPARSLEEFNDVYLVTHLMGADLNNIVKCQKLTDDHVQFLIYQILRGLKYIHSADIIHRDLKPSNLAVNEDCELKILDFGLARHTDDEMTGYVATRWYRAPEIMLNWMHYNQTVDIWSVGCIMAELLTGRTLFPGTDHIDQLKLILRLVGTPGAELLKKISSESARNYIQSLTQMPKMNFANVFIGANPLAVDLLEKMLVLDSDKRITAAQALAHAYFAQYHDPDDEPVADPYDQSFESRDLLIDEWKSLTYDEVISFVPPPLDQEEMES

[23] = molecular target: Maternal embryonic leucine zipper kinase (Homo sapiens) (UniProt Q14680); assay: Inhibition of human MELK assessed as percent of control at 2000 nM by KINOMEscan assay relative to control; set-up: scale not given: the % may be the effect or the level left
[24] = molecular target: Dual specificity mitogen-activated protein kinase kinase 5 (Homo sapiens) (UniProt Q13163); assay: Inhibition of human MEK5 assessed as percent of control at 2000 nM by KINOMEscan assay relative to control; set-up: scale not given: the % may be the effect or the level left
Dual specificity mitogen-activated protein kinase kinase 5 (Homo sapiens), sequence (Q13163 whole entry, the tested form may be a part): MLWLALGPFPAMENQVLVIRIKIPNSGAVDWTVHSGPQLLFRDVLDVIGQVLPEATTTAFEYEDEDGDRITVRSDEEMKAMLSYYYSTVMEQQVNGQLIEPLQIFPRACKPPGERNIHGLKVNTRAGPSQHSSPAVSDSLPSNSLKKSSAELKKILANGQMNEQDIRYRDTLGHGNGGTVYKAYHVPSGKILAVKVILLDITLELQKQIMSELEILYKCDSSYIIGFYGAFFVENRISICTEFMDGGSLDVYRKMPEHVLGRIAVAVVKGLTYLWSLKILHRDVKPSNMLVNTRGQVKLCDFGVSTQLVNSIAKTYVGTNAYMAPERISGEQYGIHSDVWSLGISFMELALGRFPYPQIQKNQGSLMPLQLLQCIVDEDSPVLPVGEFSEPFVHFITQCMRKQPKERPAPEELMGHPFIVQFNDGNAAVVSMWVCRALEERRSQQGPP

[25] = molecular target: Non-receptor tyrosine-protein kinase TYK2 (Homo sapiens) (UniProt P29597); assay: Inhibition of human TYK2 JH2 pseudokinase domain assessed as percent of control at 2000 nM by KINOMEscan assay relative to control; set-up: scale not given: the % may be the effect or the level left
Myc-CaP [26] = assay: Inhibition of colony formation in murine castration-resistant Myc-CaP cells at 1 uM in presence of 5 uM enzalutamide by clonogenic assay relative to control; type: functional; conditions: Mus musculus
[27] = molecular target: Protein-tyrosine kinase 2-beta (Homo sapiens) (UniProt Q14289); assay: Inhibition of human PYK2 assessed as percent of control at 2000 nM by KINOMEscan assay relative to control; set-up: scale not given: the % may be the effect or the level left
[28] = molecular target: Serine/threonine-protein kinase BRSK2 (Homo sapiens) (UniProt Q8IWQ3); assay: Inhibition of human BRSK2 assessed as percent of control at 2000 nM by KINOMEscan assay relative to control; set-up: scale not given: the % may be the effect or the level left
Serine/threonine-protein kinase BRSK2 (Homo sapiens), sequence (Q8IWQ3 whole entry): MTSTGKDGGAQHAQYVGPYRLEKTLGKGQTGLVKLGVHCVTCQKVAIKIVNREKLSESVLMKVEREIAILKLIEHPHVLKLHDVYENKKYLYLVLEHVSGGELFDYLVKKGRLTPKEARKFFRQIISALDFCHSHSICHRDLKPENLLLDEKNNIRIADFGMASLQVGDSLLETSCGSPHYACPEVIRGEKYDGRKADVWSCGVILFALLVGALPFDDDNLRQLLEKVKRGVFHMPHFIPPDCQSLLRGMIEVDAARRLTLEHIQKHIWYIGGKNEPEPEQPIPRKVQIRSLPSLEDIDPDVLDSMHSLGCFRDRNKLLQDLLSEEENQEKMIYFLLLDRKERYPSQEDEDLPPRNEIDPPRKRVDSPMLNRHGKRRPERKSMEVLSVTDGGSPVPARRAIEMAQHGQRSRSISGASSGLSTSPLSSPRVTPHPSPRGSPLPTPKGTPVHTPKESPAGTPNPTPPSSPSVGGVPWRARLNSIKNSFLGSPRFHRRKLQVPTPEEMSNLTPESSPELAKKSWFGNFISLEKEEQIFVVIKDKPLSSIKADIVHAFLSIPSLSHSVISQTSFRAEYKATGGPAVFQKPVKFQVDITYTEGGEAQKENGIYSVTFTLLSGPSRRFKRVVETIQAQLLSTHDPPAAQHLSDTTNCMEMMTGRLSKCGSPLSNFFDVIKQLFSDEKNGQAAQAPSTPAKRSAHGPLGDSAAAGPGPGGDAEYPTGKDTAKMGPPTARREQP

[29] = molecular target: Dual specificity protein kinase CLK3 (Homo sapiens) (UniProt P49761); assay: Inhibition of human CLK3 assessed as percent of control at 2000 nM by KINOMEscan assay relative to control; set-up: scale not given: the % may be the effect or the level left
[30] = system: Tyrosine-protein kinase ABL1 (Homo sapiens), P00519 [F317L]; assay: Inhibition of phosphorylated human ABL1 F317L mutant assessed as percent of control at 2000 nM by KINOMEscan assay relative to control; set-up: scale not given: the % may be the effect or the level left
[31] = molecular target: Serine/threonine-protein kinase Nek6 (Homo sapiens) (UniProt Q9HC98); assay: Inhibition of human NEK6 assessed as percent of control at 2000 nM by KINOMEscan assay relative to control; set-up: scale not given: the % may be the effect or the level left
Serine/threonine-protein kinase Nek6 (Homo sapiens), sequence (Q9HC98 whole entry): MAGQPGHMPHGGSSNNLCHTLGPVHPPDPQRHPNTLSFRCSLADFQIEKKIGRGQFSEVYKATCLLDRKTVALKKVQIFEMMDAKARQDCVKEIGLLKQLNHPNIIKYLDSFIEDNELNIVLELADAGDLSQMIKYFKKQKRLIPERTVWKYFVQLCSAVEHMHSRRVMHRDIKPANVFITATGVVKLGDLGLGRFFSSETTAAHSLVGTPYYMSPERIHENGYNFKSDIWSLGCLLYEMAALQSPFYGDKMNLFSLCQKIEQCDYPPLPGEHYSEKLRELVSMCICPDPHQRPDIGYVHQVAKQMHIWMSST

For `CN(C)C(=O)c1ccc(N2CCCN(c3ccnc4sc(C(N)=O)c(N)c34)CC2)cc1`, the Activity [1] was 100%, the Activity [2] was 100% and 93% and the Activity [3] was 93% and 100%. The Activity (Myc-CaP [4]) was “Active”, the Activity [5] was 77% and the Activity ([5]; INHIBITOR) was 10%. For the same molecule, the Activity [6] was 95% and 82%, the Activity [7] was 80% and the Activity ([7]; INHIBITOR) was 40%. The Activity [8] was 68%, the Activity ([8]; INHIBITOR) was 47% and the Activity [9] was 98% and 99%. For the same molecule, the Activity [10] was 86% and 96%, the Activity [11] was 100% and 92% and the Activity [12] was 99% and 100%. For the same molecule, the Activity [13] was 93% and 78%, the Activity [14] was 100% and 87% and the Activity [15] was 91% and 90%. For the same molecule, the Activity [16] was 100% and 96%, the Activity [17] was 91% and 99% and the Activity [18] was 77% and 81%. The Activity [19] was 97% and 100%, the Activity [20] was 89% and 97% and the Activity [21] was 78% and 80%. For the same molecule, the Activity [22] was 93% and 99%, the Activity [23] was 75% and 84% and the Activity [24] was 86% and 65%. The Activity [25] was 73% and 59%, the inhibition (Myc-CaP [26]) was “Active” and the Activity [27] was 97% and 84%. For the same molecule, the Activity [28] was 100%, the Activity [29] was 100% and 95% and the Activity [30] was 97% and 82%. For the same molecule, the Activity [31] was 92% and 100%.
